Reference: patent US6432383B1, “Method for administering insulin” (Generex Pharmaceuticals Incorporated, priority 2000, dated 2002)

System: healthy non-diabetic human volunteers
Assay: Blood glucose in fasted healthy non-diabetic volunteers, injected vs oral insulin (Example 1)
Type: in vivo
Set-up: unit not given here
Settings: sub-cutaneous injection 10 units, avg of 5 fasted healthy volunteers
Procedure: In one set of tests, five healthy non-diabetic human volunteers were tested with insulin, by injection. In another set of tests the volunteers were tested with insulin, taken orally. The volunteers fasted from midnight prior to the test, with no food being taken during the 4 hour study.
On the first day, the volunteers received 10 units insulin by injection (regular fast acting insulin, available from Eli Lilly). On the second day, the volunteers received 100 units (1 mL volume per drop, approximately 20 drops) of the above-prepared oral insulin (10 times the injection dose). In both tests, blood glucose levels were monitored every 15 minutes by Bayer's Glucometer Elite.

Work on insulin [regular fast acting insulin] yielded a Blood glucose levels (0 min) of 5.8, a Blood glucose levels (15 min) of 5.8 and a Blood glucose levels (30 min) of 5.4. For the same substance, the Blood glucose levels (60 min) was 5.0, the Blood glucose levels (75 min) was 4.6 and the Blood glucose levels (90 min) was 4.3. For the same substance, the Blood glucose levels (120 min) was 3.8, the Blood glucose levels (150 min) was 3.6 and the Blood glucose levels (180 min) was 3.4. For the same substance, the Blood glucose levels (210 min) was 4.2 and the Blood glucose levels (240 min) was 4.5.
